A word on the EC50: it is the concentration needed to bring the measured effect to its halfway point.

Data on 20 compounds can be found in US9822069B2, “Urea derivative or pharmacologically acceptable salt thereof” (KYORIN PHARMACEUTICAL CO. LTD., priority 2013, dated 2017).

In this assay the target is T1, human FPRL1 (Homo sapiens, UniProt P25090).
T1 construct: expressed in transfected cells; host or cells: HEK293 (JCRB9068, NIBIO), transient transfection with pCMV-script vectors using Lipofectamine 2000
T1 sequence (P25090 1-351): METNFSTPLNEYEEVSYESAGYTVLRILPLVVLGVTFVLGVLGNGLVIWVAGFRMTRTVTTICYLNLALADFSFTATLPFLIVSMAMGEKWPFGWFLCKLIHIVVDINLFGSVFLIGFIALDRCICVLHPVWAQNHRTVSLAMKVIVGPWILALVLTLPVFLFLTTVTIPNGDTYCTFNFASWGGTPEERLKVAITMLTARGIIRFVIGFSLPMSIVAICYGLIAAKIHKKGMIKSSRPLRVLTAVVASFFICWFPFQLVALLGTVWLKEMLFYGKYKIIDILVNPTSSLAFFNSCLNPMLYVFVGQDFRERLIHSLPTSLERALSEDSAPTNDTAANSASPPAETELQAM
The assay can be described thus: Measurement test of agonist activity on human FPRL1 (test of calcium mobilization in cell, HEK293 with human FPRL1 and Gα15 expression vectors). It counts as cell-based. The note with it: calcium mobilization in HEK293 cells with human FPRL1 and Gα15 expression vectors. The text has this: Measurement Test of Agonist Activity on Human FPRL1
(1-1) Construction of Human FPRL1 Expression Vector
Human FPRL (SEQ ID NO: 3) was amplified in a PCR reaction from cDNA derived from a monocytic leukemia cell line THP-1 (TIB-202, ATCC) as a template using a forward primer shown in SEQ ID NO: 1, a reverse primer shown in SEQ ID NO: 2, and KOD-plus-ver. 2 (KOD-211, TOYOBO CO., LTD.). The amplified PCR product and pCMV-script vector (212220, STRATAGENE) were digested with Hind III (1060A, Takara Bio Inc.) and XhoI (1094A, Takara Bio Inc.), and the resultant digest was ligated with Ligation high ver. 2 (LGK-201, TOYOBO CO., LTD.). The ligation product was transformed into DH5α (DNA-901, TOYOBO CO., LTD.), cultured on a 100 μg/mL kanamycin-containing LB medium, and purified with HiSpeed Plasmid Maxi Kit (12662, QIAGEN).
(1-2) Construction of Human Gα15 Expression Vector
Human Gα15 (SEQ ID NO: 6) was amplified in a PCR reaction from cDNA derived from a myeloid leukemia cell line HL-60 (CCL-240, ATCC) as a template using a forward primer shown in SEQ ID NO: 4, a reverse primer shown in SEQ ID NO: 5, and KOD-plus-ver. 2. The amplified PCR product and pCMV-script vector were digested with Hind III and XhoI, and the resultant digest was ligated with Ligation high ver. 2. The ligation product was transformed into DH5α, cultured on a 100 μg/mL kanamycin-containing LB medium, and purified with HiSpeed Plasmid Maxi Kit.
(2-1) Method for Culturing and Subculturing HEK293
HEK293 (JCRB9068, NIBIO) was cultured in an incubator at 5% CO2 and 37° C. using DMEM (11885-092, GIBCO) containing 10% FBS and 1× Penicillin-Streptomycin (15140-122, GIBCO). Subculture was carried out as followings: The cells that reached 80 to 90% confluency were washed with PBS(−), separated using 0.25% Trypsin-EDTA (25200-072, GIBCO), centrifuged, re-suspended in a fresh medium, and then seeded in Collagen Type 1 Coated dish (4020-010, IWAKI) at a split ratio of 1:8 (cultured for 3 days).
(2-2) Introduction of Human FPRL1 and Gα15 Expression Vectors
HEK293 that reached 80 to 90% confluency was washed with PBS(−), separated using 0.25% Trypsin-EDTA, centrifuged, and re-suspended in a fresh medium excluding 1× Penicillin-Streptomycin. The cells were inoculated in a Collagen Type 1 coated 6-well plate (4810-010, IWAKI) to 5×10^5 cells/2.5 mL/well and cultured overnight. On the next day, human FPRL1 and Gα15 expression vectors were introduced using Lipofectamine 2000 transfection reagent (11668-019, Life technologies). First, the human FPRL1 and Gα15 expression vectors were diluted with Opti-MEM I Reduced Serum Medium (31985-070, GIBCO) to 2 μg/250 μL/well and Lipofectamine 2000 transfection reagent was diluted with Opti-MEM I Reduced Serum Medium to be 4 μL/250 μL/well. The vectors and reagent were softly diffused, and incubated at room temperature for 5 minutes. The vector solution was mixed with Lipofectamine 2000 transfection reagent in equal amounts. In order to form a composite of the vectors and Lipofectamine 2000 transfection reagent, the mixture was incubated at room temperature for 20 minutes, and added at 500 μL/well to the medium of inoculated cells. The treated cells were cultured for 24 hours, inoculated in Poly-D-Lysine coated 96-well plate (356640, BD Biosciences) at a cell density of 7×10^4 cells/100 μL/well, and cultured for another 24 hours. The resultant cells were used in a measurement test of calcium mobilization in the cells.
(3) Evaluation of Agonist Activity on Human FPRL1 (Test of Calcium Mobilization in Cell)
An appropriate amount of each test compound was first weighed, and dissolved to 10^−2 M by addition of dimethyl sulfoxide (DMSO). […]
Background: Calcium flux is commonly read through the fluorescence of an indicator in the cells.
Turning to `COc1cc(F)c([C@@H]2CNC(=O)[C@H]2NC(=O)Nc2ccc(Oc3ccccc3)cc2)c(F)c1` (relative stereo) [Example 7-7, (−)-1-[(3S*,4R*)-4-(2,6-difluoro-4-methoxyphenyl)-2-oxopyrrolidin-3-yl]-3-(4-phenoxyphenyl)urea], the EC50 worked out at 1.56 nM. As to `O=C(Nc1ccc(F)cc1)N[C@@H]1C(=O)N(CCO)C[C@H]1c1cc2c(cc1F)OCC2` (single isomer, unassigned) [EXAMPLE 24-19, (−)-1-[(3S*,4R*)-4-(6-fluoro-2,3-dihydrobenzofuran-5-yl)-1-(2-hydroxyethyl)-2-oxopyrrolidin-3-yl]-3-(4-fluorophenyl)urea], the EC50 amounted to 0.33 nM. Regarding `COc1ccc(C2CNC(=O)C2NC(=O)Nc2ccc(F)cc2)cc1` (stereo not drawn) [Example 12-13, (+)-1-(4-fluorophenyl)-3-[4-(4-methoxyphenyl)-2-oxopyrrolidin-3-yl]urea], the concentration for a half-maximal effect (EC50) worked out at 1.12 nM.

`COc1cc(F)c([C@@H]2CNC(=O)[C@H]2NC(=O)Nc2cc(C)ns2)c(F)c1` (relative stereo) [Example 1-58, (−)-1-[(3S*,4R*)-4-(2,6-difluoro-4-methoxyphenyl)-2-oxopyrrolidin-3-yl]-3-(3-methylisothiazol-5-yl)urea]: the concentration giving a half-maximal response (EC50) came out at 0.32 nM.

Consider `COc1cc(F)c([C@@H]2CN/C(=N\OCCO)[C@H]2NC(=O)Nc2ccc(Cl)nc2)c(F)c1` (single isomer, unassigned) [EXAMPLE 32-14, (−)-1-(6-chloropyridin-3-yl)-3-{(3S*,4R*,Z)-4-(2,6-difluoro-4-methoxyphenyl)-2-[(2-hydroxyethoxy)imino]pyrrolidin-3-yl}urea], for which the EC50 worked out at 0.82 nM.

Turning to `COc1ccc([C@H]2[C@H](NC(=O)Nc3ccc(F)cc3)C(=O)N[C@@H]2C)cc1` (relative stereo) [Example 1-41, (−)-1-(4-fluorophenyl)-3-[(3S*,4R*,5R*)-4-(4-methoxyphenyl)-5-methyl-2-oxopyrrolidin-3-yl]urea], the EC50 turned out to be 0.73 nM. `CNC(=O)C(C)N1C[C@@H](c2ccc(OC)cc2)[C@H](NC(=O)Nc2ccc(F)cc2)C1=O` (single isomer, unassigned; isomer a) [Example 19-1, (−)-2-{(3S*,4R*)-3-[3-(4-Fluorophenyl)ureido]-4-(4-methoxyphenyl)-2-oxopyrrolidin-1-yl}-N-methylpropionamide (isomer A)]: the concentration for a half-maximal effect (EC50) amounted to 0.21 nM. In the case of `CO/N=C1\NC[C@@H](c2c(F)cc(OC)cc2F)[C@@H]1NC(=O)Nc1cc2ccccc2s1` (single isomer, unassigned) [EXAMPLE 32-11, (−)-1-(benzo[b]thiophen-2-yl)-3-[(3S*,4R*,Z)-4-(2,6-difluoro-4-methoxyphenyl)-2-(methoxyimino)pyrrolidin-3-yl]urea] it was 0.88 nM; in that of `CCOC(=O)CN1C[C@@H](c2cc3c(cc2F)OCC3)[C@H](NC(=O)Nc2ccc(F)cc2)C1=O` (single isomer, unassigned) [EXAMPLE 24-20, (−)-2-{(3S*,4R*)-4-(6-fluoro-2,3-dihydrobenzofuran-5-yl)-3-[3-(4-fluorophenyl)ureido]-2-oxopyrrolidin-1-yl}acetic acid ethyl ester], 0.15 nM; in that of `COc1ccc([C@H]2CN(OC)C(=O)[C@@H]2NC(=O)Nc2ccc(F)cc2)cc1` (single isomer, unassigned) [EXAMPLE 27-1, (+)-1-(4-Fluorophenyl)-3-[(3R*,4S*)-1-methoxy-4-(4-methoxyphenyl)-2-oxopyrrolidin-3-yl]urea], 3.14 nM. In the case of `CO/N=C1\NC[C@@H](c2c(F)cc(OC)cc2F)[C@@H]1NC(=O)Nc1ccc(Cl)nc1` (single isomer, unassigned) [EXAMPLE 32-10, (−)-1-(6-chloropyridin-3-yl)-3-[(3S*,4R*,Z)-4-(2,6-difluoro-4-methoxyphenyl)-2-(methoxyimino)pyrrolidin-3-yl]urea] it was 0.53 nM; in that of `COc1cc(F)c([C@@H]2CNC(=O)[C@H]2NC(=O)Nc2ccc(Cl)s2)c(F)c1` (relative stereo) [Example 8-1, (−)-1-(5-Chlorothiophen-2-yl)-3-[(3S*,4R*)-4-(2,6-difluoro-4-methoxyphenyl)-2-oxopyrrolidin-3-yl]urea], 0.29 nM.

For `COc1ccc([C@@H]2CN/C(=N\OCCO)[C@H]2NC(=O)Nc2ccc(F)cc2)cc1` (single isomer, unassigned) [EXAMPLE 32-4, (−)-1-(4-fluorophenyl)-3-{(3S*,4R*,Z)-2-[(2-hydroxyethoxy)imino]-4-(4-methoxyphenyl)pyrrolidin-3-yl}urea], the EC50 worked out at 0.17 nM.

For the compound `COc1ccc(C2CN(CCO)C(=O)C2NC(=O)Nc2ccc(F)cc2)cc1` (stereo not drawn) [Example 12-15, (+)-1-(4-fluorophenyl)-3-[1-(2-hydroxyethyl)-4-(4-methoxyphenyl)-2-oxopyrrolidin-3-yl]urea], the EC50 was determined as 0.43 nM. In the case of `CCOC(=O)CC/N=C1\NC[C@@H](c2c(F)cc(OC)cc2F)[C@@H]1NC(=O)Nc1ccc(F)cc1` [EXAMPLE 32-20, 3-((Z)-{(3S,4R)-4-(2,6-difluoro-4-methoxyphenyl)-3-[3-(4-fluorophenyl)ureido]pyrrolidin-2-ylidene}amino) propanoic acid ethyl ester] it was 2.86 nM.

`COc1ccc([C@@H]2CN(C(C)C(=O)O)C(=O)[C@H]2NC(=O)Nc2ccc(F)cc2)cc1` (single isomer, unassigned; isomer b) [Example 20-1, (−)-2-{(3S*,4R*)-3-[3-(4-Fluorophenyl)ureido]-4-(4-methoxyphenyl)-2-oxopyrrolidin-1-yl}propionic acid (isomer B)]: the EC50 is 0.47 nM. Take `COc1ccc(C2CNC(=O)C2NC(=O)Nc2ccc(Cl)cc2)cc1` (single isomer, unassigned; (-)) [Example 12-11, (−)-1-(4-chlorophenyl)-3-[4-(4-methoxyphenyl)-2-oxopyrrolidin-3-yl]urea]: the EC50 was found to be 4.57 nM. For `COc1cc(F)c([C@@H]2CN(OC)C(=O)[C@H]2NC(=O)Nc2ccc(F)cc2)c(F)c1` (single isomer, unassigned) [EXAMPLE 27-2, (−)-1-[(3S*,4R*)-4-(2,6-Difluoro-4-methoxyphenyl)-1-methoxy-2-oxopyrrolidin-3-yl]-3-(4-fluorophenyl)urea] the value was 0.1 nM.

With `COc1cc(F)c([C@@H]2CNC(=O)[C@H]2NC(=O)Nc2ccc(Cl)cn2)c(F)c1` (relative stereo) [Example 1-32, (−)-1-(5-chloropyridin-2-yl)-3-[(3S*,4R*)-4-(2,6-difluoro-4-methoxyphenyl)-2-oxopyrrolidin-3-yl]urea], the EC50 worked out at 4.54 nM. For `COc1ccc([C@@H]2CN(CCO)C(=O)[C@H]2NC(=O)Nc2ccc(Cl)cc2)cc1` (single isomer, unassigned) [Example 15-1B, (+)-trans-1-(4-Chlorophenyl)-3-[1-(2-hydroxyethyl)-4-(4-methoxyphenyl)-2-oxopyrrolidin-3-yl]urea] the value was 1.99 nM.
